PubChem BioAssay (NCI)
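Method: 48-hour compound exposure of cells in 96-well plates, five concentrations, linear interpolation of endpoints. The concentration for 50% growth inhibition is given as GI50. At the TGI there is no net growth.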

Tests used:
Test in all cases: inhibition of tumour cell growth, NCI panel, 48 h
NCI/ADR-RES ovarian = tested on: NCI/ADR-RES ovarian
M14 melanoma = tested on: M14 melanoma
BT-549 breast = tested on: BT-549 breast
SW-620 colon = tested on: SW-620 colon
IGROV1 ovarian = tested on: IGROV1 ovarian
SNB-19 CNS = tested on: SNB-19 CNS
MCF7 breast = tested on: MCF7 breast
LOX IMVI melanoma = tested on: LOX IMVI melanoma
NCI-H226 lung = tested on: NCI-H226 lung
SF-539 CNS = tested on: SF-539 CNS

Compound | GI50 (NCI/ADR-RES ovarian) [µM] | TGI (NCI/ADR-RES ovarian) [µM] | GI50 (M14 melanoma) [µM] | TGI (M14 melanoma) [µM] | GI50 (BT-549 breast) [µM] | TGI (BT-549 breast) [µM] | GI50 (SW-620 colon) [µM] | TGI (SW-620 colon) [µM] | GI50 (IGROV1 ovarian) [µM] | TGI (IGROV1 ovarian) [µM] | GI50 (SNB-19 CNS) [µM] | TGI (SNB-19 CNS) [µM] | GI50 (MCF7 breast) [µM] | TGI (MCF7 breast) [µM] | GI50 (LOX IMVI melanoma) [µM] | TGI (LOX IMVI melanoma) [µM] | GI50 (NCI-H226 lung) [µM] | TGI (NCI-H226 lung) [µM] | GI50 (SF-539 CNS) [µM] | TGI (SF-539 CNS) [µM]
O=C1C(=O)c2ccccc2C(O)=C1CC=C(Br)Br | 5.33 | 87.3 | 7.38 | 55.4 | 11.3 | 71.9 | 3.07 | > 100 | 3.91 | 93.8 | 4.67 | 77.8 | 4.29 | > 100 | 1.34 | 27.6 | 11.6 | 53.2 | 4.17 | 47.3
O=C(CO)CC(=O)C(=O)Nc1ccccc1 | – | – | – | > 100 | – | – | – | > 100 | – | > 100 | – | > 100 | – | – | – | > 100 | – | > 100 | – | > 100
CC(C)c1ccc(C2C3=C(N=C4SCC(=O)N42)C(=O)c2ccccc23)cc1 (stereo not drawn) | – | – | – | > 100 | – | – | – | > 100 | – | > 100 | – | > 100 | – | – | – | – | – | > 100 | – | > 100
COC(=O)C(=O)OC1(C(C)=O)CC2(c3ccccc3)OC1(c1ccccc1)c1ccccc12 (stereo not drawn) | – | – | – | 31.9 | – | – | – | 30.3 | – | 41.4 | – | 47.3 | – | – | – | 30.4 | – | 31.7 | – | 26.7
NC(N)=N/N=C\c1cccc(OCc2ccccc2)c1 | 3.85 | 22.2 | – | – | 15 | 28.4 | 1.68 | 3.33 | 6.07 | 23.8 | 10.3 | 23.3 | 1.77 | 3.75 | 1.78 | 3.4 | 6.74 | 25.9 | 5.11 | 20
O=C1NC(=O)C2C(=O)NC(=O)C1C2(c1ccccc1)c1cc[nH]c1 (stereo not drawn) | – | – | – | > 100 | – | – | – | > 100 | – | > 100 | – | > 100 | – | – | – | > 100 | – | > 100 | – | > 100
N#Cc1c(NN)nc(NN)c(C#N)c1-c1ccccc1 | – | – | – | > 100 | – | – | – | > 100 | – | > 100 | – | > 100 | – | – | – | > 100 | – | > 100 | – | > 100
Cc1cc2nc(CCC(=O)O)c(=O)[nH]c2cc1C | – | – | – | > 100 | – | – | – | – | – | > 100 | – | > 100 | – | – | – | > 100 | – | > 100 | – | > 100
O=C1/C(=C/c2ccccc2)CN(C(=O)c2cccnc2)C/C1=C\c1ccccc1 | 3.03 | 21.2 | 1.93 | 5.17 | – | – | 0.33 | 1.8 | 2.85 | 9.74 | 1.49 | 10.8 | 0.322 | 1.46 | 0.21 | 0.483 | 3.12 | 9.79 | 2.14 | 6.19
CCOc1ccccc1NC(=O)CC1SC(=Nc2ccc([N+](=O)[O-])cc2)NC1=O (stereo not drawn) | – | – | – | 50.9 | – | – | – | 52.7 | – | 61.4 | – | > 100 | – | – | – | 47.1 | – | 41.8 | – | –
c1ccc2[nH]c(-c3ccc(NN=Nc4ccncc4)cc3)nc2c1 | > 100 | > 100 | > 100 | > 100 | 4.39 | > 100 | 49.7 | > 100 | > 100 | > 100 | > 100 | > 100 | – | – | 6.59 | 38.4 | > 100 | > 100 | – | –
CC(=O)[CH-]C(=O)c1ccccc1.CC(=O)[CH-]C(=O)c1ccccc1.CC(C)CCCC(C)[C@H]1CCC2[C@@H]3CC=C4C[C@@H]([O-])CC[C@]4(C)C3CC[C@@]21C.CC[O-].[Ti+4] (stereo partly drawn) | – | – | 48.3 | > 100 | – | – | 46.6 | > 100 | > 100 | > 100 | 32.6 | > 100 | – | – | 81.1 | > 100 | > 100 | > 100 | 34.1 | > 100
C=C1C(=O)O[C@H]2[C@H]1CC/C(Cn1cc(-c3cc(C(F)(F)F)cc(C(F)(F)F)c3)nn1)=C\CC[C@@]1(C)O[C@@H]21 | – | – | 0.357 | 1.55 | 0.178 | 0.509 | 0.19 | 0.399 | 0.841 | 2.34 | 1.71 | 3.58 | 0.198 | 1.19 | 0.156 | 0.298 | 1.65 | 3.56 | 0.178 | 0.422
Oc1cc(O)c2c(-c3c(O)c(-c4ccc(O)c(O)c4)[o+]c4cc(O)cc(O)c34)c(O)c(-c3ccc(O)c(O)c3)[o+]c2c1 | – | – | – | > 100 | – | – | – | > 100 | – | > 100 | – | > 100 | – | – | – | > 100 | – | 64 | – | 50.3
COc1cc2c3c(n(CCCN)c(=O)c2cc1OC)-c1cc2c(cc1/C3=C\CCN)OCO2 | > 96.1 | > 100 | 12.3 | 35.7 | – | – | 3.56 | > 66.2 | 3.74 | > 26.8 | 3.46 | > 30.9 | 0.692 | – | 1.7 | – | 1.45 | 5.9 | 1.62 | 4.41
CCCCCC/C=C1\CCC(CN2CCCC2)C1=O (stereo not drawn) | – | – | – | 33.6 | – | – | – | > 59.4 | – | 39.6 | – | > 52.9 | – | – | – | 22.4 | – | 34.3 | – | 34.1
CC1(CO)OC(n2cc(C(=O)NC(=O)OCc3ccccc3)c(=O)[nH]c2=O)CC1O (stereo not drawn) | – | – | – | > 100 | – | – | – | > 100 | – | > 100 | – | > 100 | – | – | – | > 100 | – | > 100 | – | > 100
COC(=O)C1=C(C(=O)ON)C2C=CC1(C(Cc1ccccc1)Nc1ccccc1)O2 (stereo not drawn) | 14.7 | 36.2 | – | – | 2.07 | 4.87 | – | – | 1.87 | 3.49 | 14.8 | 27.9 | 2.42 | 6.59 | 1.74 | 3.24 | 12.8 | 25.6 | 11.5 | 23.7
